Measured values published in paper PMC7123434, “Development of High-Throughput Fluorescent-Based Screens to Accelerate Discovery of P2X Inhibitors from Animal Venoms” (Journal of Natural Products, 2019).

Key:
Assay type in all cases: cell-based
hP2X4 [1] = molecular target: T1, hP2X4 (Homo sapiens, UniProt Q99571); assay: Fura-2 AM [Ca2+]i assay on 1321N1-hP2X4 cells; settings: used for fitting; Figure S1 A,B: 1321N1-hP2X4 and HEK293-hP2X4; read-out: ATP EC50
T1 construct: expressed in transfected cells
T1 sequence (Q99571 1-388): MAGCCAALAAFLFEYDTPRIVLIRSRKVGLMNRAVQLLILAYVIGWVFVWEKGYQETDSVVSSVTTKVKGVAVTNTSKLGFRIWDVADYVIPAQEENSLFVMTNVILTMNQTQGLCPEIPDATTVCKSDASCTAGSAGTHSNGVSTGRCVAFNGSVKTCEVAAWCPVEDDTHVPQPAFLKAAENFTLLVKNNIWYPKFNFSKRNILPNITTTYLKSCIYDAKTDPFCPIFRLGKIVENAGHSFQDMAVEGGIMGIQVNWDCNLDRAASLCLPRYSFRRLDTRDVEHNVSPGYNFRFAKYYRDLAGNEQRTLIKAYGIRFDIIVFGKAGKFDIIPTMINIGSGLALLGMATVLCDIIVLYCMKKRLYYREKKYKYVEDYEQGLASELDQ
Description: One day prior to measurements, 1321N1-hP2X4 cells were plated onto poly-D-lysine-coated 96-well plates at 2 × 10^4 cells/well. After 24 h, the cells were loaded for 1 h at 37 °C with 2 μM Fura-2 AM in Hank’s Balanced Salt Solution (HBSS, Gibco). The Fura-2 loading buffer dye was removed; then the cells were incubated in 80 μL of Etotal buffer, containing (in mM) 145 NaCl, 5 KCl, 1 MgCl2, 2 CaCl2, 13 D-glucose, 10 HEPES; pH 7.33. […] The injection volume was 10 μL with 150 μL pipette height and rate of 4 (∼62 μL/s). The run time was 300 s with 3.5 s intervals and 3 reads/well. The change in [Ca^2+]i concentration was calculated as the ratio of Fura-2 intensities at 520 emission from excitation at 340 and 380 nm (F ratio).

hP2X7 = molecular target: T2, hP2X7 (Homo sapiens, UniProt Q99572); assay: YOPRO-1 dye uptake assay on HEK293-hP2X7 cells; settings: used for fitting; Figure S1C: HEK293-hP2X7; read-out: ATP EC50
T2 construct: expressed in transfected cells
T2 sequence (Q99572 1-595): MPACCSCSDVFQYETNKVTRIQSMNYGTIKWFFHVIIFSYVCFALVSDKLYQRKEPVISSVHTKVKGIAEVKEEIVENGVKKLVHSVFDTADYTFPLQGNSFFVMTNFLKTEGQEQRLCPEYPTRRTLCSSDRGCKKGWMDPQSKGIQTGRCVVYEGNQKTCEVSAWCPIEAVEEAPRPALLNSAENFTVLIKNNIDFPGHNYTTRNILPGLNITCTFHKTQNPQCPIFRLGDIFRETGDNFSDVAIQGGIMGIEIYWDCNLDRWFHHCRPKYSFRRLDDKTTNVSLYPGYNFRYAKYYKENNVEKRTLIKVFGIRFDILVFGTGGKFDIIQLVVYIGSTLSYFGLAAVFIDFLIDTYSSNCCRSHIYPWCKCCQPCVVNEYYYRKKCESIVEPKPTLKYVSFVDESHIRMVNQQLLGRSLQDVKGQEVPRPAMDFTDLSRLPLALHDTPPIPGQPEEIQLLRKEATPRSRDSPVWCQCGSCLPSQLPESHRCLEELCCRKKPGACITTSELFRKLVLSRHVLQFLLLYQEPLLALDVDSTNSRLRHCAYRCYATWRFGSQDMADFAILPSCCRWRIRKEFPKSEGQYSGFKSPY
Description: (§1) This method was adapted and further optimized from Patrice et al.[50] One day prior to measurements, HEK293-hP2X4 and HEK293-hP2X7 cells were plated on poly-D-lysine-coated 96-well plates at 2 × 10^4 cells/well. After 24 h, the culture media was aspirated, and 80 μL of YOPRO-1 assay buffer (145 mM NaCl, 5 mM KCl, 0.1 mM CaCl2, 13 mM D-glucose, 10 mM HEPES; pH 7.35) with 2 μM YOPRO-1 was applied. […] The injection volume was 10 μL with a 150 μL pipet height and rate of 4 (∼62 μL/s). The run time was 300 s with a 3.9 s interval, 6 reads/well, and 77 reads in total. Measurement parameters were as follows: bottom reading, excitation wavelength (490 nm), emission wavelength (520 nm).

hP2X4 [2] = molecular target: T1, hP2X4; assay: YOPRO-1 dye uptake assay on HEK293-hP2X4 cells
Description: as §1

Row | Compound | EC50 (hP2X4 [1]) | EC50 (hP2X7) | inhibition at 10 µM (hP2X4 [2]; 10 μM, hP2X4, cell line not stated) | Normalised Mean (hP2X4 [2]; AUC signal normalised to positive control (10 µM ATP) = 1.0, HEK293-hP2X4)
1 | Nc1ncnc2c1ncn2[C@@H]1O[C@H](COP(=O)(O)OP(=O)(O)OP(=O)(O)O)[C@@H](O)[C@H]1O [ATP] | 1.6 µM | 300 µM |  | 
2 | CC(C)c1cc(Br)c(NC(=O)Nc2cccnc2)c(Br)c1 [BX430] |  |  | 75% | 1.05
